Assay results published in patent publication US12485110B2, “Use of ergothioneine for extending lifespan or improving healthspan” (NANJING NUTRABUILDING BIO-TECH CO., LTD., priority 2022, dated 2025).

Columns and labels:
[1] = system: C. elegans; assay: Differential gene expression by mRNA sequencing (RNA-Seq); format: in vivo; details: for Number of genes differentially expressed above threshold: 5 mM vs control
Description: More than 150 day-1 adult worms per replicate were harvested, cleaned by filtration, and frozen at −80° C. in Trizol. To extract RNA, samples were thawed, vigorously vortexed, and processed using the Direct-zol RNA Miniprep Kit (Zymo Research). All samples exceeded our threshold for RNA quantity and quality.
RNA samples were submitted to Novogene Co. Ltd and subjected to more stringent QC, being tested on a Qubit for concentration and run on an agarose gel and on the Agilent 2100 to assess RNA quality and integrity.
The total RNA is then enriched for poly-mRNA using oligo(dT) paramagnetic beads. DNA libraries were then constructed from this input mRNA using the NEB Next Ultra™ II RNA Library Prep Kit. This creates a ready-to-sequence dsDNA library that retains the strand-specific information in the original mRNA. These libraries were then further tested by the Qubit for concentration and the Agilent 2100 for library size distribution and quality. In order to properly pool the libraries and load them onto sequencing lanes to ensure the correct number of reads per sample, an even more precise quantification of the library was done via qPCR, and the samples were loaded onto the NovaSeq 6000 platform for a paired-end sequencing run of 150 bp for each end (PE150). The loading concentrations were designed to obtain at least 6.0 Gb (which is the number of billion bases of raw data, determined by the number of reads multiplied by the length of each read).
Sequencing run data quality control was performed both by Novogene and again by inventors of this application. The raw data set was analyzed for: • 1. The distribution of base quality along the length of the sequencing read; • 2. The distribution of error rate along the length of the sequencing read; • 3. The distribution of A/T/G/C bases along the length of the sequencing read; • 4. The distribution of raw data filtering results based on the following three criteria: • a. Removing reads containing adapter sequence, • b. Remove reads with N>10% (where N means “base cannot be determined”), • c. Remove reads with a low quality (Qscore<=5) for 50% or more of its total bases.
To identify potential mechanisms of action through which Ergothioneine could affect aging, global gene expression was analyzed by mRNA sequencing (RNA-Seq). Both young (adult day 3) and aged (adult day 10) worms were collected from the same population of worms tested in the lifespan assay.
Differential gene expression was performed with EdgeR using […] likelihood ratio tests based on fitting linear models. The likelihood ratios were used to determine the p-values which were subsequently corrected for using the BH false discovery rate (fdr) method. Ultimately, differentially expressed genes (DEG) were defined as genes with an fdr-corrected p-value of 0.05 or lower, as well as a change in expression of at least 2-fold in a given between-group comparison. In this study, the comparison groups in Table 5 were used:
Reading Volcano Plots (log 2 fold change, Log FC): Positive values mean that the gene is more expressed in Treatment, and negative values mean the gene is more expressed in Control. The farther the dot is from the origin point on the x-axis, the greater the expression fold-change. Genes represented in green show a larger than 2-fold change in expression but are not deemed statistically significant due to replicate variability or low read count. Genes represented by red dots show greater than 2-fold change and expression that is statistically significant. The higher on the y-axis, the greater the calculated level of significance.

[2] = system: C. elegans; assay: Longevity-focused pathway analysis of differentially expressed genes; format: in vivo
From the text: This example describes identification of cellular pathways that are most likely modulated by treatment with Ergothioneine. To accomplish this, the genes differentially expressed after Ergothioneine treatment were first mapped to core established longevity pathways from the literature. Then the mapping was expanded to intersecting and supporting pathways. This placed the transcriptomic data within the context of well-characterized biological pathways, particularly several related to longevity.
Differentially expressed genes (DEGs) were mapped to known physiological pathways and then examined for coherent linkages between pathways related to longevity. These pathways were drawn from WormBase, KEGG, and other published databases and literature. For each condition, the DEGs were filtered on a more relaxed P value cutoff than the initial differential gene expression to capture broad evidence for a pathway from many small changes as opposed to highly significant individual genes of interest. For visualization, pathway genes were given a score based on the fold change weighted by the log of the P value, and this score was color mapped by magnitude and direction to produce the pathway diagram in FIG. 11.
FIG. 11 is a summary of pathway mapping to recognized aging-related pathways for Ergothioneine treatment. Colored score increments indicate degree of up-(red) or down-(blue) regulation weighted by the log of the P value such that each increment approximates one inverse log of P value. Uncolored objects indicate components that were not detected in the data. Top red indicates P value<0.0001 and so on. Solid lines indicate direct pathway connections and dashed lines indicate indirect or multi-step connections. Where lists of differentially expressed genes have been condensed into a module, the number of genes is indicated.
Starting with the canonical longevity pathways, the intersections with supporting pathways was then examined to expand the pool of evidence of whether a pathway is impacted by the treatment.

[3] = 5 mM vs vehicle control, Day 10, log 2 fold change
[4] = 5 mM vs. vehicle control, Day 3, log 2 fold change
[5] = Ergothioneine treatment, pathway mapping FIG. 11

SMILES: C[N+](C)(C)[C@@H](Cc1c[nH]c(=S)[nH]1)C(=O)[O-] [Ergo, Ergothioneine]
- Number of genes differentially expressed above threshold ([1]; Day 3, cpr-1, mtl-1, argk-1, fdr P 0.05 or lower and at least 2-fold): 3
- Number of genes differentially expressed above threshold ([1]; Day 10, F55G11.4): 1
- log FC, gene C30G12.2 [1, 3]: 0.55
- log FC, gene F55G11.4 [1, 3]: −1.09
- log FC, gene K07C11.7 [1, 3]: −0.43
- log FC, gene TO5E12.6 [1, 3]: 0.62
- log FC, gene Y39B6A. 1 [1, 3]: −0.38
- log FC, gene Y94H6A.10 [1, 3]: 0.43
- log FC, gene clec-150 [1, 3]: −0.45
- log FC, gene col-19 [1, 3]: −0.47
- log FC, gene dod-6 [1, 3]: 0.69
- log FC, gene dod-24 [1, 3]: −0.49
- log FC, gene folt-2 [1, 3]: −0.49
- log FC, gene pmp-5 [1, 3]: −0.64
- log FC, gene pmt-2 [1, 3]: −0.38
- log FC, gene smd-1 [1, 3]: 0.26
- log FC, gene thn-2 [1, 3]: 0.31
- Log FC, gene C14C6.5 [1, 4]: −0.59
- Log FC, gene F16B4.4 [1, 4]: 0.66
- Log FC, gene F28B4.3 [1, 4]: −0.48
- Log FC, gene F53A9.8 [1, 4]: −0.73
- Log FC, gene F57F4.4 [1, 4]: −0.43
- Log FC, gene Y39B6A. 1 [1, 4]: −0.95
- Log FC, gene argk-1 [1, 4]: 1.14
- Log FC, gene col-95 [1, 4]: −0.56
- Log FC, gene col-124 [1, 4]: 1.76
- Log FC, gene cpr-1 [1, 4]: −2.10
- Log FC, gene ctsa-1.2 [1, 4]: −0.48
- Log FC, gene ctsa-2 [1, 4]: 0.50
- Log FC, gene folt-2 [1, 4]: −0.54
- Log FC, gene hacd-1 [1, 4]: −1.06
- Log FC, gene ilys-5 [1, 4]: −0.57
- Log FC, gene irg-5 [1, 4]: 1.39
- Log FC, gene lys-7 [1, 4]: −0.70
- Log FC, gene mtl-1 [1, 4]: −1.63
- Log FC, gene smd-1 [1, 4]: −0.35
- Log FC, gene vit-4 [1, 4]: −0.64
- superoxide dismutase (SOD-2) expression ([2]; Ergo treatment): slightly decreased expression
- cpr-1 expression ([2]; Ergothioneine treatment, autophagy): significantly downregulated
- daf-2 expression [2, 5]: slightly downregulated
- daf-16 expression [2, 5]: slight downregulation
- ife-2 (eIF4E) expression [2, 5]: downregulated
- mtl-1 expression [2, 5]: strongly downregulated
- skn-1 expression ([2]; Ergothioneine treatment, stress response): slight downregulation
